Test results reported in US10399966B2, “Compounds for treatment of trypanosomes and neurological pathogens and uses thereof” (The University of North Carolina at Chapel Hill, priority 2016, dated 2019).
Like-named read-outs stand apart in the source and are kept apart here.

What was measured:
T. b. brucei = assay: In vitro antitrypanosomal activity against T. brucei (growth inhibition); type: cell-based, Trypanosoma brucei; conditions: Trypanosoma brucei
Description: Primary hits from the screen were further characterized using a dose-response assay format to determine the EC50. In parallel, the cytotoxicities of these compounds were determined against a proliferating human hepatoma cell line (Huh7). […] SI—CC50/EC50). The final set of confirmed T. brucei hits consisted of 1035 inhibitors. […] In vitro antitrypanosomal activities against T. b. rhodesiense (STIB9000) and cytotoxicities against L6 rat myoblast cells were measured following established protocols (Orhan et al., Mar. Drugs 8:47 (2010). […] All wells including negative controls contained a final of 0.4% DMSO. After incubation of the plates at 37° C. for 48 h, the parasite density was determined using the CellTiter-Glo reagent (Promega), a firefly luciferase assay system that measures the amount of cellular ATP present in plate wells.

[1] = Distribution between mouse plasma and brain (brain penetration, ip); type: in vivo; conditions: for Brain/plasma ratio / [compound]Brain / [compound]Plasma: Table 14, mice, single ip dose 5 mg/kg, one hour post-dose; for [compound]Brain / [compound]Plasma: ± SEM of 3 mice (compound 3: 6 mice); for Kp at 1 h / concentration at 1 h: mouse, 5 mg/kg, Table 8; for Kp at 1 h: groups of 3 mice, read-out: Average brain/plasma ratio; for concentration at 1 h: groups of 3 mice (compound 3: ± SEM of 6 mice)
Description: For distribution of compounds between mouse plasma and brain, mice (in groups of 3) were injected with test compounds (5 mg/kg ip) and sacrificed at the indicated times for collection of plasma and brain. Compound was dissolved in 0.4 mL of dosing solution (7% Tween 80, 3% ethanol, 5% DMSO, 0.9% saline) for ip injections. The brains were weighed and immediately frozen, then later homogenized in acetonitrile using a Dounce homogenizer. Prior to animal studies, recovery of test compound was carried out by adding a known amount to a mouse brain in the test extraction solvent and performing the homogenization. Compound recovery was determined by liquid chromatography/tandem mass spectrometry analysis relative to a standard compound amount. Blood was taken from the same mice in heparinized capillary tubes (Fisherbrand) for determination of compound concentration in plasma. The concentration of compound in the brain was obtained by dividing the moles of compound in the brain by the brain volume (obtained from the brain weight assuming 1 g is 1 mL) and correcting for the brain vasculature volume of 2.5% by weight.
Brain penetration studies (Table 14) were initially performed upon compounds 1, 2, and 3, but were expanded to include other compounds in order to explore the SAR of brain penetration. Groups of three mice were given single 5 mg/kg ip doses of the test compounds and were sacrificed 1 h post-dose.

Trypanosoma cruzi = assay: Efficacy against T. cruzi in vitro; type: cell-based; conditions: Trypanosoma cruzi; for EC90: read-out: T.cruzi EC90
[2] = tested on: human lymphocytes CRL-8155; assay: Cytotoxicity against CRL-8155 cells; conditions: human lymphoblasts; for EC50: read-out: CRL-8155 EC50, concentration required to inhibit growth by 50%; for EC90: read-out: CRL-8155 EC90, concentration required to inhibit growth by 90%
Description: The selectivity of each compound for the parasite over each of the two cell lines was calculated.

human hepatocytes HepG2 = assay: Cytotoxicity against HepG2 cells; conditions: for EC50: Homo sapiens, HepG2, read-out: HepG2 EC50; for EC90: read-out: HepG2 EC90, concentration required to inhibit growth by 90%, human hepatocytes
[3] = Table 9, read-out: T. brucei EC50
[4] = Table 9, read-out: T. brucei EC90
[5] = brain and plasma, intraperitoneal
[6] = brain, intraperitoneal, read-out: Average [compound] brain
[7] = plasma, intraperitoneal, read-out: Average [compound] plasma
[8] = Table 8, read-out: T. brucei EC50
[9] = Table 10, read-out: T.cruzi EC50
[10] = Table 11, read-out: T. b. brucei EC50

| SMILES | melting point [°C] | EC50 (T. b. brucei; [3]) [µM] | EC90 (T. b. brucei; [4]) [µM] | EC50 [2] [µM] | EC90 [2] [µM] | EC50 (human hepatocytes HepG2) [µM] | EC90 (human hepatocytes HepG2) [µM] | EC50 (T. b. brucei; [10]) [µM] | further results |
| --- | --- | --- | --- | --- | --- | --- | --- | --- | --- |
| O=C(Nc1ccc2sc(-c3ccc(F)c(F)c3)nc2c1)N1CCC(C(F)(F)F)C1 (stereo not drawn) [Compound 10, 2-(3,4-Difluorophenyl)-5-[(3-trifluoromethyl)-N-pyrrolidylamido]benzothiazole] | 171 to 175 | 1.69 | 4.88 | – | – | – | – | – | Brain/plasma ratio [1]: 0.477 ± 0.052; [compound]Brain [1]: 1.97 ± 0.612 µM; [compound]Plasma [1]: 4.15 ± 1.368 µM; Kp at 1 h [1, 5]: 0.477 ± 0.09; concentration at 1 h [1, 6]: 1970 ± 1060 nM; concentration at 1 h [1, 7]: 4150 ± 2370 nM; EC50 (T. b. brucei; [8]): 1.7 µM |
| CN(C)C1CCN(C(=O)Nc2ccc3sc(-c4ccc(F)c(F)c4)nc3c2)C1 (stereo not drawn) [Compound 11, 2-(3,4-Difluorophenyl)-5-(3-dimethylamino-N-pyrrolidylamido)benzothiazole] | 147 to 149 | 1.7 | 1.95 | – | – | – | – | – | Brain/plasma ratio [1]: 3.80 ± 0.331; [compound]Brain [1]: 3.00 ± 0.796 µM; [compound]Plasma [1]: 0.780 ± 0.202 µM; Kp at 1 h [1, 5]: 3.8 ± 0.57; concentration at 1 h [1, 6]: 3000 ± 1380 nM; concentration at 1 h [1, 7]: 780 ± 350 nM; EC50 (T. b. brucei; [8]): 1.71 µM |
| O=C(Nc1ccc2sc(-c3ccccc3)nc2c1)N1CCSC1 [Compound 22] | 177 to 179 | 1.24 | 2.38 | – | – | – | – | – | – |
| O=C(Nc1ccc2sc(-c3ccc(F)c(F)c3)nc2c1)N1CCC(F)(F)C1 [Compound 9, 2-(3,4-Difluorophenyl)-5-(3,3-difluoro-N-pyrrolidylamido)benzothiazole] | 227 to 228 | 0.934 | 1.66 | > 50 | > 50 | > 50 | > 50 | 0.934 | Brain/plasma ratio [1]: 7.92 ± 0.693; [compound]Brain [1]: 21.7 ± 1.96 µM; [compound]Plasma [1]: 2.81 ± 0.452 µM; Kp at 1 h [1, 5]: 7.92 ± 1.2; concentration at 1 h [1, 6]: 21700 ± 3400 nM; concentration at 1 h [1, 7]: 2810 ± 784 nM; EC50 (T. b. brucei; [8]): 0.934 µM |
| O=C(Nc1ccc2sc(-c3ccccc3)nc2c1)c1cccs1 [Compound 18, 2-Phenyl-5-(2-thienylamido)benzothiazole] | 256 | 0.882 | 2.13 | > 50 | > 50 | > 50 | > 50 | 0.882 | – |
| O=C(Nc1ccc2sc(-c3ccc(F)cc3)nc2c1)N1CCCC1 [Compound 26, 2-(4-Fluorophenyl)-5-(N-pyrrolidylamido)benzothiazole] | 211 to 213 | 0.375 | 0.895 | > 50 | > 50 | > 50 | > 50 | 0.375 | EC50 (Trypanosoma cruzi; [9]): 0.666 µM; EC90 (Trypanosoma cruzi; Table 10): 0.802 µM |
| O=C(Nc1ccc2sc(-c3ccc(F)c(F)c3)nc2c1)N1CC[C@@H](F)C1 [Compound 4, (R)-2-(3,4-Difluorophenyl)-5-(3-fluoro-N-pyrrolidylamido)benzothiazole] | – | 0.326 | 0.491 | > 50 | > 50 | > 50 | > 50 | 0.326 | EC50 (Trypanosoma cruzi; Table 6, read-out: T. cruzi EC50): 0.491 µM; EC50 (Trypanosoma cruzi; [9]): 0.968 µM; EC90 (Trypanosoma cruzi; Table 10): 1.54 µM; Brain/plasma ratio [1]: 4.86 ± 1.055; [compound]Brain [1]: 6.35 ± 2.257 µM; [compound]Plasma [1]: 1.20 ± 0.270 µM; concentration at 1 h ([1]; in vivo, read-out: Average [compound] brain): 6350 ± 3910 nM; concentration at 1 h ([1]; in vivo, read-out: Average [compound] plasma): 1200 ± 467 nM; Kp at 1 h ([1]; in vivo): 4.86 ± 1.83; EC50 (T. b. brucei; Table 6, read-out: T. brucei EC50): 0.326 µM; EC50 (T. b. brucei; [8]): 0.326 µM |
| O=C(Nc1ccc2sc(-c3ccccc3)nc2c1)N1CC=CCC1 [Compound 24, N-(2-Phenylbenzo[d]thiazol-5-yl)-3,6-dihydropyridine-1(2H)-carboxamide] | 199 to 200 | 1.12 | 1.35 | – | – | – | – | – | – |
| O=C(Nc1ccc2sc(-c3ccc(F)cc3)nc2c1)c1ccccc1 [Compound 25, 5-Benzamido-2-(4-fluorophenyl)benzothiazole] | 232.5 to 233.5 | 1.92 | 3 | – | – | – | – | – | – |
| O=C(Nc1ccc2sc(-c3ccc(F)cc3)nc2c1)N1CCCCC1 [Compound 27, 2-(4-Fluorophenyl)-5-(N-piperidylamido)benzothiazole] | 227 to 229 | 0.427 | 0.737 | > 50 | > 50 | > 50 | > 50 | 0.427 | EC50 (Trypanosoma cruzi; [9]): 1.67 µM; EC90 (Trypanosoma cruzi; Table 10): 1.95 µM |

Further lines, with some results ahead:

| melting point [°C] | SMILES | EC50 (T. b. brucei; [3]) [µM] | EC90 (T. b. brucei; [4]) [µM] | EC50 [2] [µM] | EC90 [2] [µM] | EC50 (human hepatocytes HepG2) [µM] | EC90 (human hepatocytes HepG2) [µM] | EC50 (T. b. brucei; [10]) [µM] | further results |
| --- | --- | --- | --- | --- | --- | --- | --- | --- | --- |
| 222 to 224 | N#CC1CCN(C(=O)Nc2ccc3sc(-c4ccc(F)c(F)c4)nc3c2)C1 (stereo not drawn) [Compound 36, 2-(3,4-Difluorophenyl)-5-(3-cyano-N-pyrrolidylamido)benzothiazole] | 2.85 | 4.67 | – | – | – | – | – | – |
| 223 to 224 | O=C(Nc1ccc2sc(-c3ccc(F)cc3F)nc2c1)N1CCCC1 [Compound 34, 2-(2,4-Difluorophenyl)-5-(N-pyrrolidylamido)benzothiazole] | 0.929 | 1.48 | – | – | – | – | – | EC50 (Trypanosoma cruzi; [9]): 1.73 µM; EC90 (Trypanosoma cruzi; Table 10): 2.02 µM |
| 224 to 226 | CN1CCN(C(=O)Nc2ccc3sc(-c4cccc(F)c4)nc3c2)CC1 [Compound 30, N-(2-(3-Fluorophenyl)benzothiazol-5-yl)-4-methylpiperazine-1-carboxamide] | 3.15 | 7.55 | – | – | – | – | – | – |
| 189 to 190.5 | COC1CCN(C(=O)Nc2ccc3sc(-c4ccc(F)c(F)c4)nc3c2)C1 (stereo not drawn) [Compound 39, 2-(3,4-Difluorophenyl)-5-(3-methoxy-N-pyrrolidylamido)benzothiazole] | 3.05 | 4.59 | – | – | – | – | – | – |
| 213 to 215 | O=C(Nc1ccc2sc(-c3ccccc3F)nc2c1)N1CCCCC1 [Compound 33, 2-(2-Fluorophenyl)-5-(N-piperidylamido)benzothiazole] | 0.935 | 1.14 | > 50 | > 50 | > 50 | > 50 | 0.935 | EC50 (Trypanosoma cruzi; [9]): 0.843 µM; EC90 (Trypanosoma cruzi; Table 10): 1.12 µM |
| 222 to 225 | O=C(Nc1ccc2sc(-c3ccc(F)c(F)c3)nc2c1)N1CCC(F)(F)CC1 [Compound 40, 2-(3,4-Difluorophenyl)-5-(4,4-difluoro-N-piperidylamido)benzothiazole] | 2.98 | 4.17 | – | – | – | – | – | – |
| 211 to 213 | O=C(Nc1ccc2sc(-c3ccc(F)c(F)c3)nc2c1)N1CCC(O)C1 (stereo not drawn) [Compound 38, 2-(3,4-Difluorophenyl)-5-(3-hydroxy-N-pyrrolidylamido)benzothiazole] | 7.68 | 13.6 | – | – | – | – | – | – |
| 241 to 243 | O=C(Nc1ccc2sc(-c3ccc(F)c(F)c3)nc2c1)N1C[C@@H](F)[C@@H](F)C1 [Compound 59, cis-2-(3,4-Difluorophenyl)-5-(3,4-difluoro-N-pyrrolidylamido)benzothiazole] | – | – | – | – | – | – | – | EC50 (T. b. brucei; Table 17, read-out: T. b. brucei EC50): 0.34 µM; EC90 (T. b. brucei; Table 17, read-out: T. b. brucei EC90): 0.517 µM |
| 221 to 222 | O=C(Nc1ccc2sc(-c3cccc(F)c3)nc2c1)c1ccccc1 [Compound 28, 5-Benzamido-2-(3-fluorophenyl)benzothiazole] | 1.78 | 3.62 | – | – | – | – | – | – |
